Laboratory results published in patent US6130220A, “Sulfamide-metalloprotease inhibitors” (Syntex (USA) Inc., priority 1999, dated 2000).

What was measured:
[1] = system: collagen matrix of cartilage explants; test: Degradation of cartilage plug in vitro (hydroxyproline release); assay type: cell-based; conditions: bovine knee cartilage explants, IL-1-α 20 ng/ml, compounds at 10 to 300 nm, 21 days, hydroxyproline content vs control
Method: The ability of the compounds of this invention to inhibit the degradation of the collagen matrix (as judged by release of hydroxyproline) was determined by the cartilage plug degradation assay in vitro by following a slight modification of the method described in Spirito, S., Doughty, E., et al., "Metalloproteinase inhibitors halt collagen breakdown in IL-1 induced bovine nasal cartilage cultures" Inflamm. Res., 44, Supp. 2: S131-S132, (1995).
Cartilage explants prepared from freshly sacrificed bovine knee joints were added to the culture medium (Dubelco's modified eagle medium, Gibco #21063-001, Gibco BRL Products, Gaithersburg, Md.), without phenol red, but with HEPES, and L-glutamine and fungizone 2.5 μglml, gentamicin 50 μg/ml, penicillin 100 U/ml, and streptomycin 100 μg/ml). The cultures were stimulated with IL-1-α at a final concentration of 20 ng/ml. Compounds of Formula (I), were added at concentrations between 10 and 300 nm in DMSO. The control samples contained only IL-1-α. The cultures were incubated at 37° C. in an atmosphere of air with 6% CO2 for 21 days during which time the medium was changed twice/week. The cartilage plugs were removed, hydrolyzed and the hydroxyproline content was determined. The MMP inhibitory activity of test materials is the measure of the hydroxyproline content in the test group relative to the vehicle treated group (control group).

[2] = system: collagen matrix of bovine nasal cartilage plugs; test: Cartilage plug degradation in vivo (cartilage plug implant assay); conditions: female Lewis rats, implanted bovine nasal cartilage plugs, hydroxyproline content vs vehicle, 8 or 9 days
Collagenase-III = test: MMP enzymatic assay, hydrolysis of MCA-Pro-Leu-Gly-Leu-DPA-Ala-Arg-NH2, Collagenase-III; assay type: biochemical; conditions: 37° C., pH 7.5, 2.5% DMSO
Method: The propeptide and catalytic domain portion of human collagenase-3 was expressed in E. Coli as an N-terminal fusion protein with ubiquitin. After purification, the catalytic domain was released by treatment with 1 mM APMA for 1 hour at 37° C., and then purified by zinc chelate chromatography.
Rat collagenase-3 was purified in active form from the culture media of uterine smooth muscle cells as described in Roswit, W. T. et al., Arch. Biochem. Biophys., 225, 285-295 (1983).
The matrix metalloprotease inhibitory activity of compounds of this invention in vitro was determined based on the hydrolysis of MCA-Pro-Leu-Gly-Leu-DPA-Ala-Arg-NH2 (Bachem, Inc.) at 37° C. as described in Knight, C. G., et al., FEBS Lett., 296, 263-266 (1992).
The matrix metalloprotease enzyme was diluted with assay buffer (50 mM Tricine pH 7.5, 200 mM NaCl, 10 mM CaCl2, and 0.005% Brij-35) containing 10 μmole of above substrate dissolved in DMSO. Compounds of the invention dissolved in DMSO or only DMSO (control samples) were added such that the final DMSO concentration in all assays was 2.5%. The fluorescence changes were monitored with a Perkin-Elmer LS-50B flourimeter using an excitation wavelength of 328 nm and an emission wavelength of 393 nm.

[3] = system: TNF-α release from Human Monomac 6 cells; test: Inhibition of TNF release in vitro, Monomac 6 cells, LPS/PMA; assay type: cell-based; conditions: 2 h; for inhibition at 10 µM: MONO-MAC-6, 10 μM, read-out: TNF-α % inhibition, Conc. 10 μM; for inhibition at 2 µM: MONO-MAC-6, 2 μM, read-out: TNF-α % inhibition, Conc. 2 μM
Method: The activity of compounds of this invention in inhibiting the TNF release was determined, using the a minor modification of the method described in Pradines-Figueres, A. and Raetz, C. R. H., J. Biol. Chem., 267 (32), 23261, (1992).
Human Monomac 6 cells (Ziegler-Heitbrock, H. W. L., et al., Int. J. Cancer, 41, 456, (1988)) were cultured at 37° C. in RPMI 1640 medium containing 10% fetal calf serum to a density of 1×10^5 cells/ml. 0.23 ml of these cells were placed in each well of a tissue culture plate and the cells were incubated for 15 min. The test compounds were dissolved in above mentioned medium and added and the incubation was continued for an additional 15 min. 10 μl of an lipopolysaccharide/phorbol-12-myristate-13-acetate (LPS/PMA) mixture was added such that the final concentration of lipopolysaccharide was 10 ng/ml and the final concentration of phorbol-12-myristate-13-acetate was 30 ng/ml. The cells were incubated for 2 h after which the plate was centrifuged and the medium was removed and analyzed for TNF content. The analysis was performed using a TNF Quantikine® Inmunoassay (R & D Systems, Minneapolis, Minn. 55413) by following the manufacturer's protocol.
The TNF-α inhibitory activity of test materials, i.e., the measure of the TNF-α content in the test group relative to the vehicle treated group (control group) was: […]

TNF-α = test: Inhibition of LPS induced TNF-α production in mice in vivo; conditions: s.c. compound, LPS 50 μg/mouse i.p. 1 h later, blood after 1.5 h
Method: The activity of compounds of this invention in inhibiting the TNF-α release was determined, using a minor modification of the methods described in Zanetti, G.; Heumann, D., et. al., "Cytokine production after intravenous or peritoneal Gram-negative bacterial challenge in mice" J. Immunol., 148, 1890, (1992) and Sekut, L., Menius, J. A., et. al., "Evaluation if the significance of elevated levels of systemic and localized tumor necrosis factor in different animal models of inflammation" J. Lab. Clin. Med., 124, 813, (1994).
Female Balbic mice were anesthetized and injected subcutaneously with the test compounds dissolved in CMC vehicle or hydroxypropylmethyl cellulose based vehicle. Control animals received only the vehicle. After 1 h, LPS (50 μg/mouse, Sigma #13129, Sigma Chemical Co., St. Louis, Mo.) was injected intraperitoneally. After 1.5 h, blood was collected from the retro-rbital plexus region of the animals in a miicrotainer serum separator tube (Becton Dickinson, Cat. No. #5960, Becton Dickinson & Co., Franklin Lakes, N.J.). The sera was separated and the amount of TNF-α was determined using the EM-TNFA® kit (Endogen, Woburn, Mass.) by following the manufacturer's protocol.

Row | SMILES | IC50 (Collagenase-III) [nM] | % protection [1] [%] | % protection [2] [%] | inhibition at 10 µM [3] [%] | TNF-α % inhibition (TNF-α) [%] | inhibition at 2 µM [3] [%]
1 | CC(C)[C@@H](NS(=O)(=O)N1CCC(Oc2ccc(Cl)cc2)CC1)C(=O)NO [compound 59, N-hydroxy-2-(R)-{[4-(4-chlorophenoxy)piperidine-1-sulfonyl]amino}-3-methylbutyramide] | 0.18 | 54 | 58 |  |  | 
2 | CC(C)[C@@H](NS(=O)(=O)N1CCN(c2ccc(C(F)(F)F)cn2)CC1)C(=O)NO [compound 60] |  | 89 |  |  |  | 
3 | CC(C)[C@@H](NS(=O)(=O)N1CCC(Oc2ccc(F)cc2)CC1)C(=O)NO [compound 179, N-hydroxy-2-(R)-{[4-(4-fluorophenoxy)piperidine-1-sulfonyl]amino}-3-methylbutyramide] | 0.073 |  | 63 | < 15 |  | 
4 | CC(C)[C@@H](NS(=O)(=O)N1CCC(Oc2ccc(Cl)cn2)CC1)C(=O)NO [compound 100, N-hydroxy-2-(R)-{[4-(5-chloropyridin-2-yloxy)piperidine-1-sulfonyl]amino}-3-methybutyramide] |  | 68 | 40 |  |  | 
5 | O=C(c1ccc(Cl)cc1)C1CCN(S(=O)(=O)N2CCN(C(=O)c3cnccn3)C[C@@H]2C(=O)NO)CC1 [compound 319, N-hydroxy-1-[4-(4-chlorobenzoyl)piperidine-1-sulfonyl]-4-(1,4-pyrazin-2-yl-carbonyl)-piperazine-2-(R)-carboxamide] |  |  |  |  | 50 | 81
6 | O=CN1CCN(S(=O)(=O)N2CCC(C(=O)c3ccc(Cl)cc3)CC2)C(C(=O)NO)C1 (racemic) [compound 262, N-hydroxy-1-[4-(4-chlorobenzoyl)piperidine-1-sulfonyl]-4-formylpiperazine-2-(RS)-carboxamide] | 0.13 |  |  |  | 50 | 90
7 | N#Cc1ccc2[nH]cc(C3CCN(S(=O)(=O)N4CCCC[C@@H]4C(=O)NO)CC3)c2c1 [compound 294, N-hydroxy-1-[4-(5-cyanoindol-3-yl)piperidine-1-sulfonyl]piperidine-2-(R)-carboxamide] | 340 |  |  |  | 90 | 97

Second part, led by results:

Row | IC50 (Collagenase-III) [nM] | SMILES | % protection [1] [%] | % protection [2] [%] | inhibition at 10 µM [3] [%] | TNF-α % inhibition (TNF-α) [%] | inhibition at 2 µM [3] [%]
8 | 0.063 | O=C(c1ccc(Cl)cc1)C1CCN(S(=O)(=O)N2CCCC[C@@H]2C(=O)NO)CC1 [compound 242, N-hydroxy-1-[4-(4-chlorobenzoyl)piperidine-1-sulfonyl]piperidine-2-(R)-carboxamide] | 27 |  | 85 |  | 
9 | 500 | CN(C)C(=O)N1CCN(S(=O)(=O)N2CCC(c3c[nH]c4c(F)c(F)c(F)c(F)c34)CC2)[C@@H](C(=O)NO)C1 [compound 309, N-hydroxy-4-(N,N-dimethylaminocarbonyl)-1-[4-(4,5,6,7-tetrafluoroindol-3-yl)piperidine-1-sulfonyl]piperazine-2-(R)-carboxamide] |  |  |  | 46 | 94
10 | 2.6 | CC(C)[C@@H](NS(=O)(=O)N1CCN(c2ccc(Cl)cc2)CC1)C(=O)NO [compound 51, N-hydroxy-2-(R)-{[4-(4-chlorophenyl)piperazine-1-sulfonyl]amino}-3-methylbutyramide] | 35 | 45 |  |  | 
11 | 0.73 | CC(C)[C@@H](NS(=O)(=O)N1CCN(c2ccc(OCc3ccccc3)cc2)CC1)C(=O)NO [compound 74, N-hydroxy-2-(R)-{[4-(4-benzyloxyphenyl)piperazine-1-sulfonyl]amino}-3-methylbutyramide] |  | 46 |  |  | 
12 | 1.3 | CC(C)[C@@H](NS(=O)(=O)N1CCN(c2ccc(Cl)cn2)CC1)C(=O)NO [compound 50, N-hydroxy-2-(R)-{[4-(5-chloropyridin-2-yl)piperazine-1-sulfonyl]amino}-3-methylbutyramide] | 71 | 70 | < 15 |  | 
